Consider 71 compounds from PubChem BioAssay AID493147 (Broad Institute, 2011).

As usually defined, the AC50 is the concentration at which the activity in the assay is half-maximal.

Several values for one entry are separate records, joined by “and”; a condition that tells them apart may be missing. Equal entries are not always repeated. Results filed as inconclusive are left out. Activity calls are given as the source filed them. How the calls were made is not given here.

System in the first experiment: not listed separately
The experiment in a line: PubChem AID 493147. Particulars: NIH-3T3 viability with fluconazole, Alamar Blue, 48 h; at 2.6 µM (top of the series).
Take `COc1ccc2c(c1)c1nc3n(c(=O)c1n2CC(=O)N1CCC(C)CC1)CCS3`: the activity change, negative = toxicity was 41.3% (inactive).

Still in this experiment, the particulars now being: NIH-3T3 viability with fluconazole, Alamar Blue, 48 h; at 26 µM (top of the series).
For `COC(=O)Cn1nc(-c2ccc(F)cc2)c2ccccc21`, the activity change, negative = toxicity is -40.8% (inactive). With `N#Cc1ccc(N2CCN(C(=O)c3ccc(Cl)cc3)CC2)nc1`, the activity change, negative = toxicity is -32.5% (inactive). In the case of `COC(=O)Cn1nc(-c2ccc(C)cc2)c2ccccc21`, the activity change, negative = toxicity is -25% (inactive).

In the case of `COC(=O)[C@@H](C)n1nc(-c2ccccc2)c2ccccc21` (racemic), the activity change, negative = toxicity was -17.9% (inactive). As to `COC(=O)Cn1nc(-c2ccccc2)c2ccc(C)cc21`, the activity change, negative = toxicity was 16.9% (inactive). In the case of `O=C(Cn1c2ccccc2c2nc3n(c(=O)c21)CCS3)NCCc1ccc(Cl)cc1`, the activity change, negative = toxicity was -12% (inactive). Same read-out and setting: the result for `O=C(Cn1c2ccccc2c2nc3n(c(=O)c21)CCS3)N1CCOCC1` reads -8.2% (inactive); that for `O=C(c1cccc(Cl)c1)N1CCN(c2ccccn2)CC1`, -4.09% (inactive); that for `COCCn1nc(-c2ccccc2)c2ccccc21`, -7.82% (inactive).

Turning to `CC(C)C(=O)N1CCN(c2ccccn2)CC1`, the activity change, negative = toxicity is 10% (inactive). As to `CCN(CC)C(=O)Cn1c2ccc(F)cc2c2nc3n(c(=O)c21)CCS3`, the activity change, negative = toxicity was -39.8% (inactive). Regarding `COC(=O)Cn1nc(-c2ccccc2)c2cc(OC)ccc21`, the activity change, negative = toxicity is -0.175% (inactive).

As to `COC(=O)Cn1c(-c2ccccc2)nc2ccccc21`, the activity change, negative = toxicity is 10.3% (inactive). For the compound `c1ccc(-c2nn(Cc3ncco3)c3ccccc23)cc1`, the activity change, negative = toxicity is -36.1% (inactive). Take `COC(=O)Cn1nc(-c2ccccc2)c2cc(C)ccc21`: the activity change, negative = toxicity was 3.35% (inactive). With `COC(=O)Cn1nc(-c2ccccc2)c2ccc(C(F)(F)F)cc21`, the activity change, negative = toxicity is -18.2% (inactive) and -8.9% (inactive).

With `N#Cc1ccc(C(=O)N2CCN(c3ccccn3)CC2)cc1`, the activity change, negative = toxicity was 15.4% (inactive).

With `COC(=O)Cn1nc(-c2ccccc2)c2cc(Cl)ccc21`, the activity change, negative = toxicity was -3.67% (inactive).

`COC(=O)CCCn1nc(-c2ccccc2)c2ccccc21`: the activity change, negative = toxicity is -45% (inactive).

Regarding `O=C(Cn1nc(C(=O)N2CCCCC2)c2ccccc21)N1CCOCC1`, the activity change, negative = toxicity is -3.68% (inactive). Still for that read-out and setting: the result for `COC(=O)Cn1nc(-c2ccccc2C)c2ccccc21` reads 24.8% (inactive); that for `COC(=O)C(C)(C)n1nc(-c2ccccc2)c2ccccc21`, -1.11% (inactive); that for `O=C(Cn1nc(-c2ccccc2)c2ccccc21)Oc1ccccc1`, 26.7% (inactive). For `O=C(Cn1c2ccccc2c2nc3n(c(=O)c21)CCS3)N1CCCC1`, the activity change, negative = toxicity is -33.6% (inactive) and 2.45% (inactive). On to `O=C(c1ccc(Cl)cc1)N1CCN(c2ncccc2C(F)(F)F)CC1`, for which the activity change, negative = toxicity is -31.9% (inactive). On the same count and under the same terms, the result for `O=C(Cn1c2ccccc2c2nc3n(c(=O)c21)CCS3)N1CCCCC1` reads -8.42% (inactive); that for `O=C(O)c1nn(Cc2ccc(Cl)cc2)c2ccccc12`, -35.3% (inactive); that for `O=c1c2[nH]c3ccccc3c2nc2n1CCS2`, -31.6% (inactive). The same measure, in the same setting: the result for `CCCNC(=O)Cn1nc(-c2ccccc2)c2ccccc21` reads 20.3% (inactive); that for `CNC(=O)Cn1nc(-c2ccccc2)c2ccccc21`, 2.83% (inactive). For the compound `O=C(c1ccc(Cl)cc1)N1CCN(c2ccc(C(F)(F)F)cn2)CC1`, the activity change, negative = toxicity is 0.409% (inactive). Regarding `COC(=O)Cn1nc(-c2ccc(Cl)cc2)c2ccccc21`, the activity change, negative = toxicity was -6.09% (inactive). Turning to `O=C(c1ccc(F)cc1)N1CCN(c2ccccn2)CC1`, the activity change, negative = toxicity is -8.14% (inactive). Regarding `O=C(Cn1c2ccc(F)cc2c2nc3n(c(=O)c21)CCS3)N1CCCCCC1`, the activity change, negative = toxicity was 21.2% (inactive). The same measure, in the same setting: the figure for `N#Cc1cccc(N2CCN(C(=O)c3ccc(Cl)cc3)CC2)n1` is -27.5% (inactive); for `O=c1c2[nH]c3ccc(F)cc3c2nc2n1CCS2` it is 9.27% (inactive). As to `COC(=O)Cn1nc(C)c2ccccc21`, the activity change, negative = toxicity is -17.5% (inactive).

In the case of `O=C(O)Cn1nc(-c2ccccc2)c2ccccc21`, the activity change, negative = toxicity is -23% (inactive). Turning to `O=C(Cn1c2ccc(F)cc2c2nc3n(c(=O)c21)CCS3)N1CCCCC1`, the activity change, negative = toxicity was -20.6% (inactive).

As to `CC(C)OC(=O)Cn1nc(-c2ccccc2)c2ccccc21`, the activity change, negative = toxicity is 11.4% (inactive). `Cc1ccnc(N2CCN(C(=O)c3ccc(Cl)cc3)CC2)c1`: the activity change, negative = toxicity was -20% (inactive).

For the compound `O=C(C1CCCCC1)N1CCN(c2ccccn2)CC1`, the activity change, negative = toxicity was -25.3% (inactive). In the case of `O=C(c1ccccc1Cl)N1CCN(c2ccccn2)CC1`, the activity change, negative = toxicity was -3.33% (inactive).

For `COCCC(=O)N1CCN(c2ccccn2)CC1`, the activity change, negative = toxicity is 2.45% (inactive). With `O=C1OCCC1n1nc(-c2ccccc2)c2ccccc21` (configuration not stated), the activity change, negative = toxicity was 4.08% (inactive). Consider `COC(=O)Cn1nc(-c2cccc(OC)c2)c2ccccc21`, for which the activity change, negative = toxicity was -29.2% (inactive). On the same count and under the same terms, the result for `COC(=O)Cn1nc(-c2ccccc2)c2ccccc21` reads -33.7% (inactive).

`Cc1nn(S(C)(=O)=O)c2ccccc12`: the activity change, negative = toxicity was -19.3% (inactive). Consider `CCCCC(=O)N1CCN(c2ccccn2)CC1`, for which the activity change, negative = toxicity was 5.32% (inactive).

Consider `N#CCn1nc(-c2ccccc2)c2ccccc21`, for which the activity change, negative = toxicity was 8% (inactive).

On to `CC(C)(C)OC(=O)Cn1nc(-c2ccccc2)c2ccccc21`, for which the activity change, negative = toxicity was 20.8% (inactive). `COc1ccc2c(c1)c1nc3n(c(=O)c1n2CC(=O)N1CCC(Cc2ccccc2)CC1)CCS3`: the activity change, negative = toxicity is 8.36% (inactive).

The next experiment deals with NIH-3T3 viability with fluconazole, Alamar Blue, 48 h. The experiment is described as follows: PubChem AID 493147.
Settings: not given
Turning to `COc1ccc(NC(=O)Cn2c3ccccc3c3nc4n(c(=O)c32)CCS4)cc1`, the AC50 is 14900 nM. With `COC(=O)Cn1nc(I)c2ccccc21`, the AC50 was 528 nM.

`O=C(c1ccc(Cl)cc1)N1CCN(c2cccc(C(F)(F)F)n2)CC1`: the AC50 was 17600 nM. In the case of `COC(=O)Cn1nc(-c2ccc(OC)cc2)c2ccccc21`, the AC50 is 1020 nM. Regarding `Cc1ccc(N2CCN(C(=O)c3ccc(Cl)cc3)CC2)nc1`, the AC50 was > 26000 nM (inactive).

Consider `COC(=O)Cn1c2ccccc2c2nc3n(c(=O)c21)CCS3`, for which the half-maximal activity concentration (AC50) was 2660 nM. In the case of `O=C(Cn1c2ccccc2c2nc3n(c(=O)c21)CCS3)N1CCCC1`, the AC50 is under 100 nM. With `COc1ccc(C(=O)N2CCN(c3ccccn3)CC2)cc1`, the AC50 is 461 nM. Consider `COc1cccnc1N1CCN(C(=O)c2ccc(Cl)cc2)CC1`, for which the AC50 was 124 nM. Still for that read-out and setting: the figure for `O=C(c1ccc(Cl)cc1)N1CCN(c2nc3ccccc3o2)CC1` is 24200 nM; for `O=C(Cn1nc(-c2ccccc2)c2ccccc21)OC1CCC1` it is 191 nM; for `COC(=O)Cn1nc(-c2ccc(C(F)(F)F)cc2)c2ccccc21` it is under 100 nM. As for `COC(=O)Cn1nc(-c2cccc(F)c2)c2ccccc21`, the AC50 is 12800 nM. In the case of `COC(=O)Cn1nc(-c2ccccc2OC)c2ccccc21`, the AC50 is 1040 nM. Turning to `COC(=O)Cn1nc(-c2ccccc2)c2ccc(OC)cc21`, the AC50 was under 100 nM. In the case of `Cc1cccc(N2CCN(C(=O)c3ccc(Cl)cc3)CC2)n1`, the AC50 was 120 nM. On to `O=C(Cn1nc(-c2ccccc2)c2ccccc21)NCc1ccc(Cl)cc1`, for which the AC50 is 25900 nM.

As for `COC(=O)Cn1ncc2ccccc21`, the AC50 was under 100 nM. For `CC1CCN(C(=O)Cn2c3ccccc3c3nc4n(c(=O)c32)CCS4)CC1`, the AC50 is > 26000 nM (inactive).
